For 14 compounds, Kd and IC50 results are on record in ChEMBL document CHEMBL1833897, “Lead generation of heat shock protein 90 inhibitors by a combination of fragment-based approach, virtual screening, and structure-based drug design” (Bioorg Med Chem Lett, 2011).

Assay [1] concerns the target T1, Heat shock protein HSP 90-alpha (Homo sapiens, UniProt P07900).
Description: Binding affinity to human HSP90alpha assessed as 2D1H-15N chemical shift perturbation by NMR spectroscopy
Assay [2] deals with T1, Heat shock protein HSP 90-alpha. The source holds these as a separate data set.
Description: Inhibition of human N-terminal GST-tagged HSP90alpha expressed in Escherichia coli after 1 hr using 10 mM of ATP and malachite green by microplate reader
Assay [3] has the same target. The source holds these as a separate data set.
Description: Binding affinity to biotinylated N-terminal human HSP90alpha using of streptavidin coated surface by SPR binding assay

As usually defined, the Kd is a measure of binding affinity in units of concentration. A low value points to higher affinity. With `CSc1nc(N)nc(-c2ccncc2)n1`, in assay [1], the dissociation constant (Kd) is above 1 µM.

As to `Nc1cnccn1`, the equilibrium dissociation constant (Kd) in assay [1] worked out at 79 µM.

As a reminder, the IC50 is the concentration needed to halve the response being measured. A higher IC50 goes with weaker potency. In turn, `CSc1nc(N)nc(SCc2ccc(Cl)cc2)n1` displayed a Kd in assay [1] of 3.7 µM. In assay [2], this compound had an IC50 of 24 µM.

For `CSc1nc(N)nc(SCc2ccccc2)n1`, it took 16 µM to reach half-maximal inhibition in assay [2] (IC50). This lies in the double-digit micromolar range.

In assay [1], `CSc1nc(N)nc(-c2ccccc2C)n1` had a dissociation constant Kd of 4.5 µM. In assay [2], this compound yielded a 50% inhibitory concentration (IC50) of 0.57 µM.

As to `Nc1ncc2c(n1)-c1ccoc1CC2`, the Kd in assay [1] was 0.33 µM.

Regarding `CCCc1nc(N)ncc1C(=O)OCC`, in assay [1], binding was characterised by a dissociation constant (Kd) of 0.34 µM.

In assay [1], `Nc1nccc(-c2nccs2)n1` came in with a Kd of 0.57 µM.

In the case of `CC(=O)c1cnc(N)nc1C`, the Kd in assay [1] was above 1 µM.

Take `Nc1ccncn1`: binding in assay [1] was put at a Kd of 300 µM.

In turn, `CSc1nc(N)nc(SCCN2CCOCC2)n1` yielded a dissociation constant (Kd) in assay [1] of 2.3 µM. In assay [2], this compound registered an IC50 of 33 µM.

As to `Oc1ccc2c(c1)CCc1c[nH]nc1-2`, in assay [3], the Kd worked out at 0.75 µM.

Turning to `CSc1nc(N)nc(-c2ccccc2)n1`, in assay [1], the dissociation constant Kd came out at 51 µM. Moreover, the IC50 in assay [2] was 31 µM.

As for `Nc1ncncn1`, the dissociation constant (Kd) in assay [1] worked out at 10 µM.
